The record followed here is patent publication US20240043448A1, “Small Molecule Inhibitors of KRAS G12C Mutant” (Merck Sharp & Dohme LLC, priority 2019, published 2024).

Read-outs that look alike come from different tables or passages of the source.

For assay [1], the target named is Biotinylated KRAS G12C protein (Homo sapiens (Human), UniProt P01116, C118S/C51S/C80L/G12C). Kind of assay: SOS-catalyzed nucleotide exchange assay (TR-FRET). The class given is biochemical. The conditions noted are these: in vitro apparent potency; preincubation time of 60 minutes prior to addition of SOS. Here is the method:
The SOS-catalyzed nucleotide exchange assay utilizes a preformed complex of recombinant biotinylated KRAS protein containing G12C/C51S/C80L/C118S mutations (183 amino acids; biotin on K10; leader sequence which is an AviTag; referred to as SEQ ID NO: 1 or “Biotinylated KRAS G12C protein” hereafter), Bodipy-GDP, and Terbium-streptavidin. Compounds are added to this complex and then after incubation for 60 minutes, the mixture is treated with recombinant SOS protein and unlabeled GTP. Small molecule inhibitors stabilize the Bodipy-GDP complex whereas the untreated protein rapidly exchanges Bodipy-GDP for unlabeled GTP resulting in reduced TR-FRET signal.
Biotinylated KRAS G12C protein (SEQ ID NO: 1) is diluted to 2 μM in an EDTA buffer (20 mM HEPES, 150 mM sodium chloride, 10 mM EDTA, and 0.01% Tween) and incubated at room temperature for one hour. This mixture is then further diluted to 90 nM in an assay buffer (20 mM HEPES, 150 mM sodium chloride, 10 mM magnesium chloride, and 0.005% Tween) containing 15 nM of Terbium-Streptavidin (Invitrogen, catalog #PV3577) and 900 nM of Bodipy-GDP and incubated at room temperature for six hours. This solution is referred to as Biotinylated KRAS G12C mixture.
Each test compound (10 mM stock in DMSO) is diluted in DMSO to make a 10-point, 3-fold dilution series in a 384-well low dead volume microplate (Labcyte, catalog #LP-0200). Once titrations are made, 10 nL of the diluted compounds is acoustically dispensed into a 384-well plate (Corning, catalog #3820) using an Echo 550 (Labcyte).
Each well of the plate receives 3 μL Biotinylated KRAS G12C mixture that had been incubating for six hours and 3 μL of assay buffer using a BioRAPTR (Beckman Coulter) and is incubated at room temperature for 60 minutes. Each well then receives 3 μL of 240 nM recombinant human SOS protein and 9 mM GTP (Sigma, G8877) in assay buffer and is incubated at room temperature for 60 minutes.
The time-resolved fluorescence resonance energy transfer signal of the plate is measured on an Envision (PerkinElmer) plate reader: Excitation filter=340 nm; emission1=495 nm; emission2=520 nm; dichroic mirror=D400/D505; delay time=100 μs. The signal of each well is determined as the ratio of the emission at 520 nm to that at 495 nm. Percent effect of each well is determined after normalization to control wells containing DMSO (no effect) or a saturating concentration of inhibitor (max effect). The apparent effect as a function of compound concentration is fit to a four parameter logistic equation.
Background: Time-resolved FRET reads energy transfer from a long-lived donor to a nearby acceptor.

Another assay deals with phospho-ERK. Kind of assay: Cellular phospho-ERK assay. The class given is cell-based. As to conditions: NCI-H358 cells, 2 hour incubation, ratio of p-Erk vs total Erk, read-out: IC50 (nM) pERK (Cell). Here is the method: NCI-H358 cells (ATCC® CRL-5807™) were cultured in T150 flask in growth medium (RPMI medium 1640-GlutaMAX™-I (ThermoFisher Scientific 61870) containing 10% fetal bovine serum (ThermoFisher Scientific 10091148)). The cells were harvested in growth medium after TrypLE (ThermoFisher scientific 12604021) digestion and were seeded in a 384-well collagen coated cell culture plate (Corning 356702) at a density of 15,000 cells/well, and incubated at 37° C., 5% CO2 overnight. The compound dose-response titrations were prepared and appropriate amounts of compounds were dispensed in a 384-well intermediate plate using an Echo 550 liquid handler. RPMI medium 1640-GlutaMAX™-I were added to the intermediate plate and transferred to 384-well cell culture plate, which was incubated at 37° C., 5% CO2 for 2 hours. After removal of medium from the plate, cells were lysed in lysis buffer from Alpha SureFire® Ultra™ Multiplex p-Erk and total Erk assay kit (PerkinElmer MPSU-PTERK) containing Halt™ Protease and Phosphotase inhibitor cocktail (ThermoFisher Scientific 78446) at room temperature with constant shaking at 300 rpm for 30 minutes. The cell lysates were then transferred to OptiPlate-384 plate (PerkinElmer 6005620) and the phosphorylation of Erk and total Erk levels were detected by Alpha SureFire Ultra Multiplex p-Erk kit (PerkinElmer MPSU-PTERK) following the manufacturer's protocol. Assay plates were read on an EnVision Multimode Plate Reader (PerkinElmer), and the ratio of p-Erk vs total Erk in each well was used as the final readout. Dose response curves were analyzed using a 4-parameter logistic model to calculate IC50 values using spotfire software.

Take `C=CC(=O)N1CC(C)N(c2nc(=O)n3c4nc(c(F)cc24)-c2c(F)ccc4cnn(c24)CCCCc2ccnc(C(C)C)c2-3)CC1C` [Example 107, 2-[(2S,5R)-2,5-dimethyl-4-(prop-2-enoyl)piperazin-1-yl]-19,22-difluoro-6-(propan-2-yl)-10,11,12,13-tetrahydro-4H-1,20-(ethanediylidene)pyrido[4′,3′:12,13]pyrimido[1′,6′:1,2][1,3,7]triazacyclotridecino[5,6,7-hi]indazol-4-one]: the results for the concentration for half-maximal inhibition (IC50) (in assay [1]; in the assay on phospho-ERK) were 10 nM and 20 nM, respectively.
Consider `C=CC(=O)N1CCN(c2nc(=O)n3c4nc(c(F)cc24)-c2c(F)cccc2OCCCCc2ccnc(C(C)C)c2-3)[C@@H](C)C1` (single isomer, unassigned) [Example 4a], for which the IC50 in assay [1] stood at 2.4 nM; with phospho-ERK, 1.5 nM.
Consider “17,20-difluoro-6-(propan-2-yl)-2-[4-(prop- 2-enoyl)-2-(2,2,2-trifluoroethyl)piperazin- 1-yl]-11,12-dihydro-4H,10H-1,18- (ethanediylidene)pyrido[4,3- e]pyrimido[1,6-g][1,7,9] benzoxadiazacyclododecin-4-one [Example 101]”, for which the IC50 in assay [1] came to 29 nM; in the assay on phospho-ERK, 137 nM.
Regarding `C=CC(=O)N1C[C@H](C)N(c2nc(=O)n3c4nc(c(F)cc24)-c2c(ccc(F)c2F)OCCC(C)c2ccnc(C(C)C)c2-3)C[C@H]1C` (single isomer, unassigned) [Example 91], the IC50 in assay [1] amounted to 113 nM; with phospho-ERK (Homo sapiens, NCI-H358, 2 h), 410 nM.
On to `C=CC(=O)N1CC(C)N(c2nc(=O)n3c4nc(c(C)cc24)-c2c(F)ccc(F)c2OCCOc2ccnc(C(C)C)c2-3)CC1C` [Example 110, 2-[(2S,5R)-2,5-dimethyl-4-(prop-2-enoyl)piperazin-1-yl]-14,17-difluoro-20-methyl-6-(propan-2-yl)-11,12-dihydro-4H-1,18-ethenopyrido[4,3-e]pyrimido[1,6-g][1,4,7,9]benzodioxadiazacyclododecin-4-one], for which the figures for the IC50 (in assay [1]; in the assay on phospho-ERK) were 4.5 nM and 23 nM, respectively.
For `C=CC(=O)N1CCN(c2nc(=O)n3c4nc(c(F)cc24)-c2c(F)cccc2CCCOc2ccnc(C(C)C)c2-3)[C@@H](C)C1` (single isomer, unassigned) [Example 20b], in that order: 1380 nM and 4760 nM.
In the case of `C=CC(=O)N1CC(C)N(c2nc(=O)n3c4nc(c(F)cc24)-c2c(ccc(F)c2F)OCC(F)(F)CCc2ccnc(C(C)C)c2-3)CC1C` [Example 54, (5aRa,18aRa)-2-[(2S,5R)-2,5-dimethyl-4-(prop-2-enoyl)piperazin-1-yl]-12,12,17,18,21-pentafluoro-6-(propan-2-yl)-10,11,12,13-tetrahydro-4H-1,19-(ethanediylidene)pyrido[4,3-f]pyrimido[1,6-h][1,8,10]benzoxadiazacyclotridecin-4-one], the IC50 in assay [1] amounted to 2.4 nM; in the assay with phospho-ERK, 16 nM.
With `C=CC(=O)N1C[C@H](C)N(c2nc(=O)n3c4nc(c(F)cc24)-c2c(F)cccc2OCCOc2ccnc(C(C)C)c2-3)C[C@H]1C` (single isomer, unassigned) [Example 15a], the IC50 came out at 6.5 nM in assay [1] and 11 nM with phospho-ERK (Homo sapiens, NCI-H358, 2 h).
`C=CC(=O)N1CCN(c2nc(=O)n3c4nc(c(F)cc24)-c2c(ccc(F)c2F)OCC(F)(F)CCc2ccnc(C(C)C)c2-3)[C@@H](C)C1` [Example 97, 12,12,17,18,21-pentafluoro-2-[(2S)-2-methyl-4-(prop-2-enoyl)piperazin-1-yl]-6-(propan-2-yl)-10,11,12,13-tetrahydro-4H-1,19-(ethanediylidene)pyrido[4,3-f]pyrimido[1,6-h][1,8,10]benzoxadiazacyclotridecin-4-one]: the IC50 in assay [1] is 0.56 nM; in the assay on phospho-ERK, 3 nM.
On to `C=CC(=O)N1C[C@H](C)N(c2nc(=O)n3c4nc(c(F)cc24)-c2c(F)cccc2OCCCCc2cnc(C(C)C)c-3c2C)C[C@H]1C` (single isomer, unassigned) [Example 89], for which the values for the IC50 (in assay [1]; with phospho-ERK) were 71 nM and 4160 nM, respectively.

The IC50 is the concentration that inhibits the measured activity by half.
